According to ChEMBL document CHEMBL4308834, “Novel Allosteric Activators for Ferroptosis Regulator Glutathione Peroxidase 4” (J Med Chem, 2018):
Activity calls are given as the source filed them. The rule behind the calls is not given here.

Key:
[1] = target: T1, Phospholipid hydroperoxide glutathione peroxidase GPX4 (Homo sapiens) (UniProt P36969); experiment: Activation of GPX4 in A23187-stimulated human PMN leukocytes assessed as increase in 15-HETE preincubated for 15 mins followed by A23187 addition and measured after 120 mins by LC-MS analysis
T1 sequence (whole entry): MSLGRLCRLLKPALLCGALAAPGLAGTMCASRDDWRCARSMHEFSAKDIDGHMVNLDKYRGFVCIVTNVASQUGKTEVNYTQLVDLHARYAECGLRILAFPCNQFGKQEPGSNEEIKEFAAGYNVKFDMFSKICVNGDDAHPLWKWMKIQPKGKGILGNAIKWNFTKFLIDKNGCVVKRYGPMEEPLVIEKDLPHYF

Homo sapiens [2] = organism: Homo sapiens; experiment: (§1) Activation of recombinant human GPX4 D21A/D23A/U46C mutant expressed in Escherichia coli M15 assessed as increase in oxidized glutathione-mediated oxidation of NADPH to NADP+ using tert-butyl hydroperoxide as substrate preincubated for 5 mins followed by substrate addition measured for 6 mins by glutathione reductase enzyme coupled fluorescence assay relative to GPX4 U46C mutant control
Homo sapiens [3] = organism: Homo sapiens; experiment: as §1, with “recombinant His-tagged” for “recombinant”, “human cytosolic” for “human”, “U46C” for “D21A/D23A/U46C”, “NADP+ at 200 uM” for “NADP+”, “to” for “to GPX4 U46C mutant”
[4] = target: Phospholipid hydroperoxide glutathione peroxidase GPX4 (Mus musculus) (UniProt O70325); experiment: Activation of GPX4 in MEF assessed as increase in […] protection against CHOOH-induced cell death at 200 uM; assay type: cell-based
[5] = target: T2, Polyunsaturated fatty acid lipoxygenase ALOX15 (Homo sapiens) (UniProt P16050); experiment: Inhibition of 15-LOX (unknown origin) at 500 uM preincubated for 1 mins followed by arachidonic acid substrate addition by spectrophotometric method
T2 sequence (whole entry): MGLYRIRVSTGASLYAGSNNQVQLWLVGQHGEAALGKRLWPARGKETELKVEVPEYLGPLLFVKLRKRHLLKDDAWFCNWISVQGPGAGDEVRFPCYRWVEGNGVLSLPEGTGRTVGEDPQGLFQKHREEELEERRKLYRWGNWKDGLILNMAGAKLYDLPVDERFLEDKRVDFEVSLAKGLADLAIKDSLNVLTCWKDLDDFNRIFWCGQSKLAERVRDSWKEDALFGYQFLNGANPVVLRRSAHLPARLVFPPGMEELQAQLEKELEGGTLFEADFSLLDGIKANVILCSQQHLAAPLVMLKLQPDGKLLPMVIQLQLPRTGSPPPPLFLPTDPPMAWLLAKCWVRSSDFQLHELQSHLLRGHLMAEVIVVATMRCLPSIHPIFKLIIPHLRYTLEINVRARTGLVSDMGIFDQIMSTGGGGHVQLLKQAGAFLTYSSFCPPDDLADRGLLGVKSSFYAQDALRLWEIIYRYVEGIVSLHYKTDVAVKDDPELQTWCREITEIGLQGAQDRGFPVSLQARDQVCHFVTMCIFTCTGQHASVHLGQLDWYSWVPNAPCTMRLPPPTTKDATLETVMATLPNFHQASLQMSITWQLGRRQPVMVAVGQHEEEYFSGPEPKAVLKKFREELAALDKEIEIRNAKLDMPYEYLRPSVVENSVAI

[6] = target: T1, Phospholipid hydroperoxide glutathione peroxidase GPX4 (Homo sapiens); experiment: Activation of GPX4 (unknown origin) expressed in HEK293T cells harboring luc2P/NF-kBRE/Hygro plasmid assessed as inhibition of TNFalpha-stimulated NFkB activation preincubated for 30 mins followed by TNFalpha addition and measured after 6 hrs by luciferase reporter gene assay; assay type: cell-based
[7] = Binding affinity to recombinant His-tagged human cytosolic GPX4 U46C mutant expressed in Escherichia coli M15 by SPR analysis
[8] = target: T3, Polyunsaturated fatty acid lipoxygenase ALOX12 (Homo sapiens) (UniProt P18054); experiment: Inhibition of 12-LOX (unknown origin) at 500 uM preincubated for 1 mins followed by arachidonic acid substrate addition by spectrophotometric method
T3 sequence (whole entry): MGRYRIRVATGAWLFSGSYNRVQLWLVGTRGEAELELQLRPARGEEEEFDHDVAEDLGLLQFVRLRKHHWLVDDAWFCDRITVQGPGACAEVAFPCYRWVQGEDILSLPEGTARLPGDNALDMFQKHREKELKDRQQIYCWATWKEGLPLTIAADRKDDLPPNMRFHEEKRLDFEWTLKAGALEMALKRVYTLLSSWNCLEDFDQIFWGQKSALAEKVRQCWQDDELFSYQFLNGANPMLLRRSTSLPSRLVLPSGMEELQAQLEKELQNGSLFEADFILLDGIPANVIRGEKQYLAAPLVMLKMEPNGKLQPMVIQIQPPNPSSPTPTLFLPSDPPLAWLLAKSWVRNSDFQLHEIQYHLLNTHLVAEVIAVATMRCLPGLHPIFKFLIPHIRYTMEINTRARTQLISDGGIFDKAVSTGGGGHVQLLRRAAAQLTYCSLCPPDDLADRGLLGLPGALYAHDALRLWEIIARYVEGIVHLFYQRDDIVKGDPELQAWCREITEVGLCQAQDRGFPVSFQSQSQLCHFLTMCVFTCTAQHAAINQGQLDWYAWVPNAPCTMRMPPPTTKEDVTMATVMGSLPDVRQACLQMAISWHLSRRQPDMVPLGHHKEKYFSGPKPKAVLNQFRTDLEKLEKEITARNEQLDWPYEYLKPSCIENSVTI

[9] = Iron chelating activity assessed as compound-Fe2+ complex formation after 10 mins by Prussian blue assay
Homo sapiens [10] = organism: Homo sapiens; experiment: as §1, with “recombinant His-tagged” for “recombinant”, “human cytosolic” for “human”, “U46C” for “D21A/D23A/U46C”, “NADP+ at 0.4 to 250 uM” for “NADP+”, “to” for “to GPX4 U46C mutant”
[11] = target: T4, Prostaglandin G/H synthase 2 (Homo sapiens) (UniProt P35354); experiment: Inhibition of COX2 (unknown origin) at 500 uM preincubated for 15 mins followed by arachidonic acid substrate addition in presence of TMPD by spectrophotometric method
T4 sequence (whole entry): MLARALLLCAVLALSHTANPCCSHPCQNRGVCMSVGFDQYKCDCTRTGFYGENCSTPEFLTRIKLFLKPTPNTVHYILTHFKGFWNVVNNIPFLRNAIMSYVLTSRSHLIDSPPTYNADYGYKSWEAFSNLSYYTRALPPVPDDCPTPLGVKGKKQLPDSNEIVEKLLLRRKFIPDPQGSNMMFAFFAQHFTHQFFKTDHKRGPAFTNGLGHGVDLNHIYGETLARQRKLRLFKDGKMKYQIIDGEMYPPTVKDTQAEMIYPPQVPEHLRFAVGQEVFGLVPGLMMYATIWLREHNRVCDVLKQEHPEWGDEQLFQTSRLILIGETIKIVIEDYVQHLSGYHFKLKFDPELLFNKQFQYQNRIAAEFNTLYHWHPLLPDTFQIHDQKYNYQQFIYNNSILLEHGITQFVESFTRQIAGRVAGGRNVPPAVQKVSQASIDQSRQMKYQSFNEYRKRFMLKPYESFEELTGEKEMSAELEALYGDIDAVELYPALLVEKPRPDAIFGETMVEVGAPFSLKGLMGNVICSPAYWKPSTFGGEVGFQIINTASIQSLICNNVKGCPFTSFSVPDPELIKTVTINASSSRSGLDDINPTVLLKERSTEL

Phospholipid hydroperoxide glutathione peroxidase GPX4 (Mus musculus), sequence (O70325 whole entry): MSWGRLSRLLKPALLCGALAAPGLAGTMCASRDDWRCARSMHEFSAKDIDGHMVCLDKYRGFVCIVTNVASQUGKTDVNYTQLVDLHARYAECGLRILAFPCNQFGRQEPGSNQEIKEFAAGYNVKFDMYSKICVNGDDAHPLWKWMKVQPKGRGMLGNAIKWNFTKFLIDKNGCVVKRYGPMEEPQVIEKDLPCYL

For `NS(=O)(=O)c1ccc(NC(S)=NCc2ccc(Cl)cc2)cc1`, the Activity [1] was “Dose-dependent effect”, the EC150 (Homo sapiens [2]) was greater than 1000 µM and the Activity (Homo sapiens [3]) was 127%. The Activity [4] was “Active”, the inhibition [5] was “inactive” and the inhibition [6] was “Dose-dependent effect”. For the same molecule, the Kd [7] was 63 µM, the inhibition [8] was “inactive” and the Activity [9] was “inactive”. The Emax (Homo sapiens [10]) was 263% and the inhibition [11] was “inactive”.
